Where two headings read alike, the source gives them in different places.
Key:
human FXIa = target: T1, human FXIa (Homo sapiens, UniProt P03951); assay: Inhibition of FXIa in vitro (chromogenic substrate assay); assay type: biochemical
T1 construct: purchased Haematologic Technologies, Essex Junction, VT, USA
Procedure: The negative controlwas composed of the same mixed solutions except replacing test compound with DMSO. […] The IC50 was calculated by IBM SPSS Statistics 22.0 (IBM Inc., North Castle, NY, USA) and the Probit function in it. IC50 values were converted to Ki values by the followingrelationship:Ki = IC50/(1 + [S]/Km)

[1] = Table 1 values, read-out: FXIa inhibitory potency (Ki)
[2] = human FXIa, chromogenic substrate BIOPHEN CS-21(66), 37 °C, pH 7.4, Ki = IC50/(1 + [S]/Km), read-out: Ki

T1 sequence (P03951 388-625 limits assumed): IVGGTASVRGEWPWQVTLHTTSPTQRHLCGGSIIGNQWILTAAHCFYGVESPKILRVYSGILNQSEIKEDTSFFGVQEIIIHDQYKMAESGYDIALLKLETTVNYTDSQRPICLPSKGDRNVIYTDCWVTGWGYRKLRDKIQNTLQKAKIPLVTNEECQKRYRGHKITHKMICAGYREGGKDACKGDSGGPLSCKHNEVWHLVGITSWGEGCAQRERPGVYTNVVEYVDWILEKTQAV
T1 sequence (P03951 19-387 partner limits assumed): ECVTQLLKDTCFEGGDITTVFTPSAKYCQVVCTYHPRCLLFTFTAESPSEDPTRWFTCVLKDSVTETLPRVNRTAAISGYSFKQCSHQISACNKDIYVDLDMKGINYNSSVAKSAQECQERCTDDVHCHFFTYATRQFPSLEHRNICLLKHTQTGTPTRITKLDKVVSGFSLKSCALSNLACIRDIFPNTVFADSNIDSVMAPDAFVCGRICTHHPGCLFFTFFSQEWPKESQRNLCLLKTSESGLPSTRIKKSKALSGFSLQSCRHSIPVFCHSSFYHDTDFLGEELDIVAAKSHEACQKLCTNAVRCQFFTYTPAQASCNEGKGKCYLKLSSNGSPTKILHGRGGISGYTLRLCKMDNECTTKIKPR

O=C(O)c1cc2cc(NC(=O)[C@H](Cc3ccccn3)NC(=O)c3cc(-c4cccc(Cl)c4F)n[nH]3)ccc2[nH]1 [Compound 7w, (S)-5-(2-(3-(3-Chloro-2-fluorophenyl)-1H-pyrazole-5-carboxamido)-3-(pyridin-2-yl)propanamido)-1H-indole-2-carboxylic acid]
Ki (human FXIa; [1]): 8.99 µM
melting point: 192 to 194 °C (dec.)

O=C(O)c1ccc(NC(=O)[C@H](Cc2ccccc2)NC(=O)c2cc(-c3c(F)cc(Cl)cc3F)[nH]n2)cc1 [Compound 7l, (S)-4-(2-(5-(4-Chloro-2,6-difluorophenyl)-1H-pyrazole-3-carboxamido)-3-phenylpropanamido)benzoic acid]
Ki (human FXIa; [2]): > 84.5 µM
melting point: 123 to 125 °C (dec.)

O=C(O)c1cc2cc(NC(=O)[C@H](Cc3cccnc3)NC(=O)c3cc(-c4cccc(Cl)c4F)n[nH]3)ccc2[nH]1 [Compound 7v, (S)-5-(2-(3-(3-Chloro-2-fluorophenyl)-1H-pyrazole-5-carboxamido)-3-(pyridin-3-yl)propanamido)-1H-indole-2-carboxylic acid]
Ki (human FXIa; [1]): 3.52 µM
melting point: 175 to 177 °C (dec.)

O=C(O)c1cc2cc(NC(=O)[C@H](Cc3ccncc3)NC(=O)c3cc(-c4cccc(Cl)c4F)n[nH]3)ccc2[nH]1 [Compound 7u, (S)-5-(2-(3-(3-Chloro-2-fluorophenyl)-1H-pyrazole-5-carboxamido)-3-(pyridin-4-yl)propanamido)-1H-indole-2-carboxylic acid]
Ki (human FXIa; [1]): 13.3 µM
melting point: 199 to 201 °C (dec.)

O=C(O)c1cc2cc(NC(=O)[C@H](CC(=O)N3CCOCC3)NC(=O)c3cc(-c4cccc(Cl)c4F)n[nH]3)ccc2[nH]1 [Compound 7y, (S)-5-(2-(3-(3-Chloro-2-fluorophenyl)-1H-pyrazole-5-carboxamido)-4-morpholino-4-oxobutanamido)-1H-indole-2-carboxylic acid]
Ki (human FXIa; [1]): 64 µM
melting point: 175 to 177 °C (dec.)

CCc1c(C(=O)N[C@@H](Cc2ccccc2)C(=O)Nc2ccc(C(=O)O)cc2)n[nH]c1-c1cccc(Cl)c1 [Compound 7n, (S)-4-(2-(5-(3-Chlorophenyl)-4-ethyl-1H-pyrazole-3-carboxamido)-3-phenylpropanamido)benzoic acid]
Ki (human FXIa; [2]): > 84.5 µM
melting point: 126 to 128 °C (dec.)

O=C(O)c1ccc(NC(=O)[C@H](Cc2ccccc2)NC(=O)c2cc(-c3c(F)ccc(Cl)c3F)[nH]n2)cc1 [Compound 7k, (S)-4-(2-(5-(3-Chloro-2,6-difluorophenyl)-1H-pyrazole-3-carboxamido)-3-phenylpropanamido)benzoicacid]
Ki (human FXIa; [2]): 28.9 µM
melting point: 129 to 131 °C (dec.)

O=C(O)c1ccc(NC(=O)[C@H](Cc2ccccc2)NC(=O)c2cc(-c3cccc(Cl)c3F)[nH]n2)cc1 [Compound 7f, (S)-4-(2-(5-(3-Chloro-2-fluorophenyl)-1H-pyrazole-3-carboxamido)-3-phenylpropanamido)benzoic acid]
Ki (human FXIa; [2]): 29.3 µM
melting point: 185 to 187 °C (dec.)

O=C(O)c1cc2cc(NC(=O)[C@H](Cc3ccccc3)NC(=O)c3cc(-c4c(F)ccc(Cl)c4F)n[nH]3)ccc2[nH]1 [Compound 7p, (S)-5-(2-(3-(3-Chloro-2,6-difluorophenyl)-1H-pyrazole-5-carboxamido)-3-phenylpropanamido)-1H-indole-2-carboxylic acid]
Ki (human FXIa; [2]): 8.4 µM
melting point: 164 to 166 °C (dec.)

CC(=O)N1CCN(C(=O)C[C@H](NC(=O)c2cc(-c3cccc(Cl)c3F)[nH]n2)C(=O)Nc2ccc3[nH]c(C(=O)O)cc3c2)CC1 [Compound 7x, (S)-5-(4-(4-Acetylpiperazin-1-yl)-2-(5-(3-chloro-2-fluorophenyl)-1H-pyrazole-3-carboxamido)-4-oxobutanamido)-1H-indole-2-carboxylic acid]
Ki (human FXIa; [1]): 81.2 µM

— article PMC6222544, “Fragment-Based Lead Generation of 5-Phenyl-1H-pyrazole-3-carboxamide Derivatives as Leads for Potent Factor Xia Inhibitors” (Molecules : A Journal of Synthetic Chemistry and Natural …, 2018)
